From patent US20250275977A1, “DOSAGE REGIMENS FOR TREATMENT WITH DEUTERATED JAK INHIBITORS” (SUN PHARMACEUTICAL INDUSTRIES, INC., priority 2022, published 2025)

How the values were obtained:
Assay type in all cases: in vivo, human
[1] = test system: adult patients with moderate-to-severe alopecia areata; assay: Phase 2a double-blind, randomized, placebo-controlled trial, efficacy by severity of alopecia tool (SALT); conditions: for patients who achieved a ≥50% reduction in their overall SALT score: week 24, relative to baseline; for difference from placebo on all SALT measures / patients who achieved a ≥75% reduction in their overall SALT score / patients who achieved a ≥90% reduction in their overall SALT score: week 24; for significant changes in SALT score compared to placebo observed starting at: p<0.05
Source text: The efficacy of treatment of hair loss disorders such as alopecia areata can be measured in a variety of ways, some of which are known in the art. For example, the “severity of alopecia tool”, otherwise known as SALT, is a validated assessment scale—developed by the National Alopecia Areata Foundation working committee—to evaluate the degree of hair loss. See, e.g., Olsen E A, Hordinsky M K, Price V H, et al. Alopecia areata investigational assessment guidelines—Part II. J Am Acad Dermatol 2004: 51: 440-447 (incorporated herein by reference). The SALT score is calculated for a patient by measuring the percentage of hair loss in each of the 4 areas of the scalp and adding the total to achieve a composite score. Hair regrowth is reflected by a decrease in the SALT score. For example, no hair on the scalp would have a SALT score of 100 while complete hair regrowth would be a SALT score of 0. In certain embodiments, methods of treatment as described herein can provide a SALT score improvement of at least 10 points after treatment (for example, from a SALT score of 100 prior to treatment to a SALT score of 90 after treatment). In further embodiments, methods of treatment as described herein can provide a SALT score improvement of at least 20 points, 30 points, 40 points, 50 points, 60 points, 70 points, 80 points, 90 points, or 100 points. In certain embodiments, methods of treatment as described herein can provide after treatment at least a 20% improvement from baseline in the patient's SALT score, or at least a 30% improvement from baseline in the patient's SALT score, or at least a 40% improvement from baseline in the patient's SALT score, or at least a 50% improvement from baseline in the patient's SALT score, or at least a 60% improvement from baseline in the patient's SALT score, or at least a 70% improvement from baseline in the patient's SALT score, or at least a 75% improvement from baseline in the patient's SALT score or at least a 80% improvement from baseline in the patient's SALT score, or at least a 90% improvement from baseline in the patient's SALT score.
(§1) A Phase 2a trial was conducted to evaluate the safety and efficacy of Compound (I) (CTP-543) in subjects with alopecia, with the primary efficacy analysis at week 24. The Phase 2a trial was a double-blind, randomized, placebo-controlled trial to evaluate the safety and efficacy of Compound (I) in adult patients with moderate-to-severe alopecia areata. Patients were sequentially randomized to receive one of three doses of Compound I as the phosphate salt (e.g., 10.5 mg of Compound (I) phosphate salt is equivalent 8 mg of Compound (I) free base). The doses of Compound (I) were 4, 8 (i.e., about 10.5 mg of Compound (I) phosphate salt), and 12 mg twice daily, and there was also a patient group receiving placebo. The primary outcome measure utilized the severity of alopecia tool (SALT) after 24 weeks of dosing.
Interim top line analysis for the 4 mg, 8 mg, and 12 mg cohorts is discussed below. The primary endpoint for the study was a 50% relative reduction in SALT between Week 24 and baseline.

[2] = test system: adult patients with moderate-to-severe alopecia areata; assay: Phase 2a trial, safety: treatment emergent adverse events by patient
Protocol: as §1

[3] = test system: subjects with alopecia areata; assay: Open-label extension study (OLE), SALT score after dose reduction
Protocol: In an ongoing open-label extension study, subjects who were previously enrolled in a qualifying clinical study (including the study described in Example 1) and received either a total daily dose of 16 mg of Compound (I) (CTP-543, phosphate salt), a total daily dose of 24 mg of CTP-543, or placebo, and completed through the 24-week treatment period, were eligible to enroll in an open-label extension study (OLE) and continue to receive treatment with CTP-543 phosphate. A total of 152 subjects were enrolled in the OLE. In the OLE, subjects received daily treatment with CTP-543 at a dose of 8 mg BID or 12 mg BID (see FIG. 8). Dose adjustments were allowed at the investigator's discretion. One subject enrolled in the OLE, who received a daily dose of 24 mg QD of CTP-543 for approximately 9 months (i.e., the 24-week study period and the initial 3 months of the OLE), experienced hair growth at that dose (SALT score of zero, i.e., full regrowth of hair prior to dose reduction). The subject then had their dose reduced to a daily dose of 8 mg BID of CTP-543 phosphate. After approximately 7 months in the OLE receiving the lower daily dose of 8 mg BID of CTP-543, the subject continued to substantially maintain hair regrowth, with a SALT score of 7.92.

[2H]C1([2H])C([C@@H](CC#N)n2cc(-c3ncnc4[nH]ccc34)cn2)C([2H])([2H])C([2H])([2H])C1([2H])[2H] [CTP-543, (R)-3-(4-(7H-pyrrolo[2,3-d]pyrimidin-4-yl)-1H-pyrazol-1-yl)-3-(cyclopentyl-2,2,3,3,4,4,5,5-d8)propanenitrile]
separation from placebo on all measures ([1]; 4 mg BID): failed to separate from placebo on all measures
patients who achieved a ≥50% reduction in their overall SALT score ([1]; 4 mg BID): 21%
difference from placebo on all SALT measures ([1]; 8 mg BID): significantly different from placebo
patients who achieved a ≥75% reduction in their overall SALT score ([1]; 8 mg BID): 29%
patients who achieved a ≥90% reduction in their overall SALT score ([1]; 8 mg BID): 16%
patients who achieved a ≥50% reduction in their overall SALT score ([1]; 8 mg BID): 47%
significant changes in SALT score compared to placebo observed starting at ([1]; 8 mg cohort): 12 weeks
12 mg BID dose compared to the 8 mg BID dose ([1]; 12 mg BID vs 8 mg BID): numerically superior and generally produced faster onset and greater effect
difference from placebo on all SALT measures ([1]; 12 mg BID): significantly different from placebo
patients who achieved a ≥75% reduction in their overall SALT score ([1]; 12 mg BID): 42%
patients who achieved a ≥90% reduction in their overall SALT score ([1]; 12 mg BID): 36%
patients who achieved a ≥50% reduction in their overall SALT score ([1]; 12 mg BID): 58%
significant changes in SALT score compared to placebo observed starting at ([1]; 12 mg cohort): 12 weeks
Acne, patients with event ([2]; 4 mg twice daily): 4
Acne, percent of patients ([2]; 4 mg twice daily): (13.8%)
Blood creatine phosphokinase increased, patients with event ([2]; 4 mg twice daily): 3
Blood creatine phosphokinase increased, percent of patients ([2]; 4 mg twice daily): (10.3%)
Cough, patients with event ([2]; 4 mg twice daily): 4
Cough, percent of patients ([2]; 4 mg twice daily): (13.8%)
Diarrhoea, patients with event ([2]; 4 mg twice daily): 3
Diarrhoea, percent of patients ([2]; 4 mg twice daily): (10.3%)
Folliculitis, patients with event ([2]; 4 mg twice daily): 3
Folliculitis, percent of patients ([2]; 4 mg twice daily): (10.3%)
Headache, patients with event ([2]; 4 mg twice daily): 5
Headache, percent of patients ([2]; 4 mg twice daily): (17.2%)
LDL increase, patients with event ([2]; 4 mg twice daily): 0
Nasopharyngitis, patients with event ([2]; 4 mg twice daily): 3
Nasopharyngitis, percent of patients ([2]; 4 mg twice daily): (10.3%)
Nausea, patients with event ([2]; 4 mg twice daily): 4
Nausea, percent of patients ([2]; 4 mg twice daily): (13.8%)
Oroharyngeal pain, patients with event ([2]; 4 mg twice daily): 3
Oroharyngeal pain, percent of patients ([2]; 4 mg twice daily): (10.3%)
Upper respiratory tract infection, patients with event ([2]; 4 mg twice daily): 2
Upper respiratory tract infection, percent of patients ([2]; 4 mg twice daily): (6.9%)
Acne, patients with event ([2]; 8 mg twice daily): 4
Acne, percent of patients ([2]; 8 mg twice daily): (10.5%)
Blood creatine phosphokinase increased, patients with event ([2]; 8 mg twice daily): 2
Blood creatine phosphokinase increased, percent of patients ([2]; 8 mg twice daily): (5.3%)
Cough, patients with event ([2]; 8 mg twice daily): 1
Cough, percent of patients ([2]; 8 mg twice daily): (2.6%)
Diarrhoea, patients with event ([2]; 8 mg twice daily): 1
Diarrhoea, percent of patients ([2]; 8 mg twice daily): (2.6%)
Folliculitis, patients with event ([2]; 8 mg twice daily): 2
Folliculitis, percent of patients ([2]; 8 mg twice daily): (5.3%)
Headache, patients with event ([2]; 8 mg twice daily): 10
Headache, percent of patients ([2]; 8 mg twice daily): (26.3%)
LDL increase, patients with event ([2]; 8 mg twice daily): 4
LDL increase, percent of patients ([2]; 8 mg twice daily): (10.5%)
Nasopharyngitis, patients with event ([2]; 8 mg twice daily): 3
Nasopharyngitis, percent of patients ([2]; 8 mg twice daily): (7.9%)
Nausea, patients with event ([2]; 8 mg twice daily): 4
Nausea, percent of patients ([2]; 8 mg twice daily): (10.5%)
Oroharyngeal pain, patients with event ([2]; 8 mg twice daily): 2
Oroharyngeal pain, percent of patients ([2]; 8 mg twice daily): (5.3%)
Upper respiratory tract infection, patients with event ([2]; 8 mg twice daily): 2
Upper respiratory tract infection, percent of patients ([2]; 8 mg twice daily): (5.3%)
Acne, patients with event ([2]; 12 mg twice daily): 6
Acne, percent of patients ([2]; 12 mg twice daily): (16.7%)
Blood creatine phosphokinase increased, patients with event ([2]; 12 mg twice daily): 1
Blood creatine phosphokinase increased, percent of patients ([2]; 12 mg twice daily): (2.8%)
Cough, patients with event ([2]; 12 mg twice daily): 2
Cough, percent of patients ([2]; 12 mg twice daily): (5.6%)
Diarrhoea, patients with event ([2]; 12 mg twice daily): 0
Folliculitis, patients with event ([2]; 12 mg twice daily): 1
Folliculitis, percent of patients ([2]; 12 mg twice daily): (2.8%)
Headache, patients with event ([2]; 12 mg twice daily): 7
Headache, percent of patients ([2]; 12 mg twice daily): (19.4%)
LDL increase, patients with event ([2]; 12 mg twice daily): 0
Nasopharyngitis, patients with event ([2]; 12 mg twice daily): 9
Nasopharyngitis, percent of patients ([2]; 12 mg twice daily): (25.0%)
Nausea, patients with event ([2]; 12 mg twice daily): 1
Nausea, percent of patients ([2]; 12 mg twice daily): (2.8%)
Oroharyngeal pain, patients with event ([2]; 12 mg twice daily): 1
Oroharyngeal pain, percent of patients ([2]; 12 mg twice daily): (2.8%)
Upper respiratory tract infection, patients with event ([2]; 12 mg twice daily): 7
Upper respiratory tract infection, percent of patients ([2]; 12 mg twice daily): (19.4%)
serious adverse events ([2]; 4, 8 and 12 mg BID, 24 weeks): no serious adverse events
tolerability of treatment ([2]; 4, 8 and 12 mg BID, 24 weeks): generally well-tolerated
Grade 3/4 hematology events ([2]; preliminary analysis, total, distributed equally across the placebo, 4 mg and 8 mg groups): 3
SALT score ([3]; one subject, 24 mg QD for approximately 9 months, prior to dose reduction): zero
SALT score ([3]; same subject, after approximately 7 months at the reduced dose of 8 mg BID): 7.92
